Assay results published in ChEMBL document CHEMBL3400002, “Structure-activity study for (bis)ureidopropyl- and (bis)thioureidopropyldiamine LSD1 inhibitors with 3-5-3 and 3-6-3 carbon backbone architectures” (Bioorg Med Chem, 2015).

Legend:
[1] = molecular target: Lysine-specific histone demethylase 1A (Homo sapiens) (UniProt O60341); assay: Activation of human recombinant LSD1 at 10 uM after 30 mins to 4 hrs by fluorescence assay relative to control
[2] = molecular target: T1, Amine oxidase [flavin-containing] A (Homo sapiens, UniProt P21397)
T1 sequence (P21397 whole entry): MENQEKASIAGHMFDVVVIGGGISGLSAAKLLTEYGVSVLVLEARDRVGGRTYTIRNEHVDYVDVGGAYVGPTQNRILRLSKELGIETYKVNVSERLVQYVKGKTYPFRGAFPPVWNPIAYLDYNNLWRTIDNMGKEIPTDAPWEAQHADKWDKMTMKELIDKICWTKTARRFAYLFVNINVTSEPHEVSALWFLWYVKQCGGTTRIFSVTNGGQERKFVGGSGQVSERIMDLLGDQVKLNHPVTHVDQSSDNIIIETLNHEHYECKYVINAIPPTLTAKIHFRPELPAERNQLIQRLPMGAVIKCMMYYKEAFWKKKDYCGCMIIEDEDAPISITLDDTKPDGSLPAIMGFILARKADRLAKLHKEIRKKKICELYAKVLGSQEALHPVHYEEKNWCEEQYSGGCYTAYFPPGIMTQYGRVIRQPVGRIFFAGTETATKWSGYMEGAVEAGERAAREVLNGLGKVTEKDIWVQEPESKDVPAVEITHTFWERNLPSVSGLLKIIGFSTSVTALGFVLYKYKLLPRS
Description: Inhibition of MAO-A (unknown origin) by MAo-Glo kit analysis

[3] = molecular target: T2, Amine oxidase [flavin-containing] B (Homo sapiens, UniProt P27338)
T2 sequence (P27338 whole entry): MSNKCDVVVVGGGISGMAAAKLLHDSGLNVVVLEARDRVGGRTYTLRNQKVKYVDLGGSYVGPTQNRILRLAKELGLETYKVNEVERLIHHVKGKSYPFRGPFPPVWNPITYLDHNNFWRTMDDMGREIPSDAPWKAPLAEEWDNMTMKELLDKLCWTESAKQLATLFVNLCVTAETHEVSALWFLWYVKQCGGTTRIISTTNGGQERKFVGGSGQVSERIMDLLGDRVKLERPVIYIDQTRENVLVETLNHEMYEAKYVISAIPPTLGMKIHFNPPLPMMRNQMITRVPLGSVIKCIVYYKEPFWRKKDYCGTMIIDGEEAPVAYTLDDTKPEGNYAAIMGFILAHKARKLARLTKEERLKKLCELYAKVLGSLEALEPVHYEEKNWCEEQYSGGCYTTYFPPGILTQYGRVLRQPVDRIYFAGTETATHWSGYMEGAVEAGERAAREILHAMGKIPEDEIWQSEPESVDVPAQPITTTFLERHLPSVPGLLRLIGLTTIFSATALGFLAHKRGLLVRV
Description: Inhibition of MAO-B (unknown origin) by MAo-Glo kit analysis

CCCNC(=O)NCCCNCCCCCCNCCCNC(=O)NCCC
Activity [1]: 119%

N=C(NCCCNCCCCCCCNCCCNC(=N)NC(=N)NCCC(c1ccccc1)c1ccccc1)NC(=N)NCCC(c1ccccc1)c1ccccc1
IC50 [2]: 37 µM | IC50 [3]: 10 µM

CCNC(=O)NCCCNCCCCCCNCCCNC(=O)NCC
Activity [1]: 119%

O=C(NCCCNCCCCCNCCCNC(=O)Nc1ccccc1)Nc1ccccc1
Activity [1]: 163%

O=C(NCCCNCCCCCCNCCCNC(=O)NCc1ccccc1)NCc1ccccc1
Activity [1]: 110%
